According to US20250206760A1, “NITROGEN-CONTAINING HETEROCYCLIC COMPOUND, PREPARATION METHOD THEREFOR, AND PHARMACEUTICAL APPLICATION THEREOF” (Jiangsu Hengrui Pharmaceuticals Co., Ltd., priority 2022, published 2025):

How the values were obtained:
Type in all cases: cell-based
[1] = system: HER2 wild-type Ba/F3 cells; assay: Ba/F3 cell proliferation assay, HER2 wild-type; settings: Mus musculus, BaF3, 72 h, Celltiter-Glo cell viability; for GI50: read-out: HER2 WT/BaF3 GI50; for Emax: read-out: HER2 WT/BaF3 Imax %
Description: (§1) EGFR wild-type Ba/F3 cells (Cobioer, Cat. No. CBP73110) in the logarithmic growth phase were seeded into a 96-well plate at 2.5×10^3 cells/[…] in a growth medium, and HER2 wild-type Ba/F3 cells (Cobioer, Cat. No. CBP73110) or HER2 A775_G776insYVMA mutant Ba/F3 (Cobioer, Cat. No. CBP73184) in the logarithmic growth phase were seeded into a 96-well plate at 5×10^3 cells/100 μL in a growth medium.
(§2) The plates were placed in a cell incubator at 37° C. overnight. The compound diluted in 3-fold gradient with a medium was added to the plates at 100 μL/well the next day. All treatments were performed in triplicate. The plates were cultured in the cell incubator at 37° C. for another 72 h. Celltiter-Glo Luminescent cell viability assay was performed.
(§3) The cell proliferation rate corresponding to each well was calculated according to the following formula: proliferation %=(test compound well G3-GO average value)/(DMSO control well G3 average value -GO average value)×100. According to the corresponding proliferation rate and concentration of each gradient concentration well, a gradient curve of cell proliferation was fitted using Prism Graphpad software, and GI50 (GI50 is defined as the concentration of a compound corresponding to the cell proliferation inhibition rate of 50%) of the compound was calculated.

[2] = system: HER2 A775_G776insYVMA mutant Ba/F3; assay: Ba/F3 cell proliferation assay, HER2 A775_G776insYVMA mutant; settings: Mus musculus, BaF3, 72 h, Celltiter-Glo cell viability; for GI50: read-out: HER2 A775_G776 ins YVMA/BaF3 GI50; for Emax: read-out: HER2 A775_G776 ins YVMA/BaF3 Imax %
Description: as §1, §2, §3

[3] = system: EGFR wild-type Ba/F3 cells; assay: Ba/F3 cell proliferation assay, EGFR wild-type; settings: 72 h, Celltiter-Glo cell viability; for GI50: Mus musculus, BaF3, read-out: EGFR WT/BaF3 GI50
Description: as §1, §2, §3

Question: C=CC(=O)N1[C@@H]2CC[C@H]1C[C@@H](Oc1ccc3ncnc(Nc4ccc(Oc5ccn6ncnc6c5)c(C)c4)c3c1)C2 [Example 1, 1-(endo-3-((4-((4-([1,2,4]Triazolo[1,5-a]pyridin-7-yloxy)-3-methylphenyl)amino)quinazolin-6-yl)oxy)-8-azabicyclo[3.2.1]octan-8-yl)prop-2-en-1-one] was tested. Which GI50 [1] did it give?
Answer: The GI50 was 4.1 nM.

Question: What about the Emax [1] of the same compound?
Answer: Its Emax is 100%.

Question: And the GI50 [2]?
Answer: The GI50 was 3.4 nM.

Question: And the Emax [2]?
Answer: The Emax was 100%.

Question: And the “EGFR WT/BaF3 Imax %” value [3]?
Answer: The value was 97%.

Question: And the GI50 [3]?
Answer: The GI50 was 3740 nM.

Question: With C=CC(=O)N1[C@@H]2CC[C@H]1C[C@@H](Oc1ccc3ncnc(Nc4ccc(Oc5ccc6c(c5)ncn6C)c(C)c4)c3c1)C2 [Example 2, 1-(endo-3-((4-((3-Methyl-4-((1-methyl-1H-benzo[d]imidazol-5-yl)oxy)phenyl)amino)quinazolin-6-yl)oxy)-8-azabicyclo[3.2.1]octan-8-yl)prop-2-en-1-one] as the compound, how does the GI50 [1] read?
Answer: Its GI50 is 18.9 nM.

Question: What about the Emax [1] of the same compound?
Answer: The Emax was 100%.

Question: What about the GI50 [2] of the same compound?
Answer: Its GI50 is 24 nM.

Question: And the Emax [2]?
Answer: Its Emax is 100%.

Question: And the “EGFR WT/BaF3 Imax %” value [3]?
Answer: Its value is 99%.

Question: And the GI50 [3]?
Answer: The GI50 was 2300 nM.

Question: What does the source list for C=CC(=O)N1[C@@H]2CC[C@H]1C[C@@H](Oc1cc3c(Nc4ccc(Oc5ccn6ncnc6c5)c(C)c4)ncnc3cn1)C2 [Example 16, 1-(endo-3-((4-((4-([1,2,4]Triazolo[1,5-a]pyridin-7-yloxy)-3-methylphenyl)amino)pyrido[3,4-d]pyrimidin-6-yl)oxy)-8-azabicyclo[3.2.1]octan-8-yl)prop-2-en-1-one]?
Answer: GI50 [1]: 9 nM; Emax [1]: 100%; GI50 [2]: 15.7 nM; Emax [2]: 100%; EGFR WT/BaF3 Imax % [3]: 73%; GI50 [3]: 7350 nM

Question: Which results are given for C=CC(=O)N1[C@@H]2CC[C@H]1C[C@@H](Oc1cc3c(Nc4ccc(Oc5ccn6ncnc6c5)c(C)c4F)ncnc3cn1)C2 [Example 20, 1-(endo-3-((4-((4-([1,2,4]Triazolo[1,5-a]pyridin-7-yloxy)-2-fluoro-3-methylphenyl)amino)pyrido[3,4-d]pyrimidin-6-yl)oxy)-8-azabicyclo[3.2.1]octan-8-yl)prop-2-en-1-one]?
Answer: GI50 [1]: 13.2 nM; Emax [1]: 100%; GI50 [2]: 15.5 nM; Emax [2]: 100%; EGFR WT/BaF3 Imax % [3]: 100%; GI50 [3]: 3510 nM

Question: Which results are given for C=CC(=O)N1[C@@H]2CC[C@H]1C[C@H](Oc1cc3c(Nc4ccc(Oc5ccn6ncnc6c5)c(C)c4F)ncnc3cn1)C2 [Example 21, 1-(exo-3-((4-((4-([1,2,4]Triazolo[1,5-a]pyridin-7-yloxy)-2-fluoro-3-methylphenyl)amino)pyrido[3,4-d]pyrimidin-6-yl)oxy)-8-azabicyclo[3.2.1]octan-8-yl)prop-2-en-1-one]?
Answer: GI50 [1]: 5.3 nM; Emax [1]: 100%; GI50 [2]: 10.4 nM; Emax [2]: 100%; EGFR WT/BaF3 Imax % [3]: 100%; GI50 [3]: 913 nM

Question: Which GI50 [1] does the source give for C=CC(=O)N1[C@@H]2CC[C@H]1C[C@H](Oc1cc3c(Nc4ccc(Oc5ccc6c(c5)ncn6C)c(C)c4)ncnc3cn1)C2 [Example 28, 1-(exo-3-((4-((3-Methyl-4-((1-methyl-1H-benzo[d]iimidazol-5-yl)oxy)phenyl)amino)pyrido[3,4-d]pyrimidin-6-yl)oxy)-8-azabicyclo[3.2.1]octan-8-yl)prop-2-en-1-one] here?
Answer: Its GI50 is 18.1 nM.

Question: And the Emax [1]?
Answer: Its Emax is 100%.

Question: What about the “EGFR WT/BaF3 Imax %” value [3] of the same compound?
Answer: Its value is −1.76%.

Question: What about the GI50 [3] of the same compound?
Answer: Its GI50 is > 10000 nM.
